Results published in patent publication US8604172B2, “Humanized antibody compositions and methods for binding lysophosphatidic acid” (Lpath, Inc., priority 2009, dated 2013).
Marks after values point to notes of the source that are not given here.

Assays:
SKOV3 tumor = assay: SKOV3 ovarian tumor progression in nude mice; format: in vivo; conditions: Mean ± S.E.
Protocol: Human mAb LT3015 reduced ovarian tumor SKOV3 progression and circulating cytokines in biological fluids. Nude mice were engrafted with either 10 mg/kg LT3015, vehicle, or 2 mg/kg paclitaxel (Taxol). After 56 days, mice were sacrificed and the peritoneal cavities were analyzed for tumor burden and ascites fluid accumulation. Tumors were harvested and final tumor weights were determined along with ascites volumes. Data were analyzed by ANOVA and student's t-test analysis. […] Serum and ascites levels of IL-6, IL-8, GM-CSF and VEGF were measured using ELISA kits from R&D systems, Minneapolis Minn.

IL-8 in Caki-1 cells = assay: LPA-induced IL-8 production in Caki-1 cells; format: cell-based, human; conditions: 18:1 LPA (0.2 mM), non-treated cells, average
Protocol: Three anti-LPA mAbs (B3, B7 and B58) were tested for their abilities to reduce in vitro IL-8 production compared to a non-specific antibody (NS). Caki-1 cells were seeded in 96 well plates and grown to confluency. After overnight serum starvation, cells were treated with 18:1 LPA (0.2 mM) with or without anti-LPA mAb B3, B7, B58 or NS (Non-Specific). After 24 h, cultured supernatants of renal cancer cells (Caki-1), treated with or without LPA and in presence of increasing concentrations of the anti-LPA mAbs B3, B7 and B58, were collected and analyzed for IL-8 levels using a commercially available ELISA kit (Human Quantikine Kit, R&D Systems, Minneapolis, Minn.). […] The inhibition of IL-8 release by the anti-LPA mAbs was also observed in other cancerous cell lines such as the pancreatic cell line Panc-1.

[1] = system: IL-6 release in SKOV3 cells; assay: LPA-induced IL-6 release in SKOV3 cells; format: cell-based, human; conditions: 1 uM LPA alone
Protocol: Anti-LPA antibodies inhibit the LPA-dependant release of human CXCL8/IL-8 in conditioned media of SKOV3 ovarian cells. SKOV3 cells (Lot No 4255558, passage 14) were harvested with 2 ml of 1× Trypsin EDTA (Mediatech Inc, Cat. No 25-053-CV) and resuspended in 8 ml of complete medium (10% FBS, Mediatech Inc. Cat. no 35-011-CV). The cells were centrifuged for 5 min ([…]) and re-suspended in 5 ml of complete medium. Cells were counted in duplicate with 0.4% Trypan blue (10 ul cells plus 90 ul Trypan blue, Invitrogen, Cat. No 15250-061) using a hemocytometer. In a 96-well plate, 1×10^5 cells per well were seeded (final volume 100 ul/well). The cells were allowed to attach and form a confluent monolayer by incubating overnight at 37° C. On the following day, cells were gently washed two times with minimum media (1 mg/ml BSA in McCoy's medium with L-glutamine, Mediatech, Cat. No 10-050-CV). […] The CXCL8/IL-8 levels in each supernatant were measured using the Quantikine human CXCL8/IL-8 ELISA kit according to vendor instructions (R&D Systems, Minneapolis Minn., Cat. No D8000C). The IL-6 levels were measured by ELISA using the Quantikine human IL-6 immunoassay kit (R&D systems, Cat. No. D6050). Data were analyzed by one-way ANOVA followed by Bonferroni's post test and expressed as human IL-8 or human IL-6 fold increase.

[2] = system: IL-8 release in SKOV3 cells; assay: LPA-induced IL-8 release in SKOV3 cells; format: cell-based, human; conditions: 1 uM LPA alone
Protocol: Anti-LPA antibodies inhibit the LPA-dependant release of human CXCL8/IL-8 in conditioned media of SKOV3 ovarian cells. SKOV3 cells (Lot No 4255558, passage 14) were harvested with 2 ml of 1× Trypsin EDTA (Mediatech Inc, Cat. No 25-053-CV) and resuspended in 8 ml of complete medium (10% FBS, Mediatech Inc. Cat. no 35-011-CV). The cells were centrifuged for 5 min ([…]) and re-suspended in 5 ml of complete medium. Cells were counted in duplicate with 0.4% Trypan blue (10 ul cells plus 90 ul Trypan blue, Invitrogen, Cat. No 15250-061) using a hemocytometer. In a 96-well plate, 1×10^5 cells per well were seeded (final volume 100 ul/well). The cells were allowed to attach and form a confluent monolayer by incubating overnight at 37° C. On the following day, cells were gently washed two times with minimum media (1 mg/ml BSA in McCoy's medium with L-glutamine, Mediatech, Cat. No 10-050-CV). The media was adjusted to 1% penicillin/streptomycin (Mediatech, Cat. No 30-002 CI) and 2.2 g/L sodium-bicarbonate (Mediatech, Cat. No 25-035-CI). Next, the cells were serum-starved at 37° C. for exactly 24 h, followed by cytokine stimulation with 1 uM C18:1 LPA (Avanti, Cat. No 857130) dissolved in 1 mg/ml BSA/PBS (Calbiochem, Cat. No 126575) which was pre-incubated in presence or absence of humanized LPA antibody LT3015 (150, 300 or 600 ug/mL) for one hour. Treatments were then added to the cells. After 22 h of cytokine stimulation, the cells were centrifuged for 5 min (13,500 rpm) at 4° C. and the supernatants (cell-conditioned media) were collected. The CXCL8/IL-8 levels in each supernatant were measured using the Quantikine human CXCL8/IL-8 ELISA kit according to vendor instructions (R&D Systems, Minneapolis Minn., Cat. No D8000C). The IL-6 levels were measured by ELISA using the Quantikine human IL-6 immunoassay kit (R&D systems, Cat. No. D6050). Data were analyzed by one-way ANOVA followed by Bonferroni's post test and expressed as human IL-8 or human IL-6 fold increase.

SKOV3 cells = assay: Scratch assay, SKOV3 tumor cell migration; format: cell-based, human; conditions: 17 hr
Protocol: SKOV3 cells were plated at 15,000 cells per well in a 96-well plate. The following day the cells were serum starved in minimal media (McCoy's Media 5a, adjusted to contain L-Glutamine, 2.2 g/L Sodium Bicarbonate, 1% penicillin/streptomycin and 1 mg/ml BSA) for 24 hrs. At time 0 cells were scratched with a p200 pipet tip down the center of each well, washed with minimal media and pictures were taken prior to treatment. Cells were then treated with LPA (C18:1) at 0.2 uM, 1.0 uM and 10 uM concentrations which were pre-incubated at 37° C. with […] in the presence or absence of antibody at 150 ug/ml. Positive control (10% FBS treated cells) and antibody alone added to 1 uM LPA, were also tested. Cells were stimulated for 17 hrs at 37° C. in a 5% CO2 incubator. Pictures were taken again 17 hr post-treatment and % wound closure was measured by adjusting pictures to the same size and measuring the width of the scratch at time 0 and time 17 hr with a ruler. Data were analyzed by Student's t-test.

Row | Compound | Ascites volume (SKOV3 tumor) [mL] | increase of IL-8 expression (IL-8 in Caki-1 cells) [%] | Human IL-6 Fold Increase (approx). [1] | Human IL-8 Fold Increase (approx). [2] | Percent wound closure (approx.) (SKOV3 cells; 0.2 uM LPA) [%] | Percent wound closure (approx.) (SKOV3 cells; 1.0 uM LPA) [%] | Percent wound closure (approx.) (SKOV3 cells; 10 uM LPA) [%]
1 | CC(=O)O[C@H]1C(=O)[C@@]2(C)[C@H]([C@H](OC(=O)c3ccccc3)[C@]3(O)C[C@H](OC(=O)[C@H](O)[C@@H](NC(=O)c4ccccc4)c4ccccc4)C(C)=C1C3(C)C)[C@]1(OC(C)=O)CO[C@@H]1C[C@@H]2O [Taxol, paclitaxel, reference compound] | 0.2 ± 0.0 | – | – | – | – | – | –
2 | Lysophosphatidic acid [LPA, reference compound] | – | 100 | ~29## | ~7.1## | ~65 | ~81 | ~89
